Biological target: T1, neuropeptide Y Y1 receptor (Y1R) (Homo sapiens, UniProt P25929)
T1 construct: gene NPY1R
T1 sequence (P25929 1-384): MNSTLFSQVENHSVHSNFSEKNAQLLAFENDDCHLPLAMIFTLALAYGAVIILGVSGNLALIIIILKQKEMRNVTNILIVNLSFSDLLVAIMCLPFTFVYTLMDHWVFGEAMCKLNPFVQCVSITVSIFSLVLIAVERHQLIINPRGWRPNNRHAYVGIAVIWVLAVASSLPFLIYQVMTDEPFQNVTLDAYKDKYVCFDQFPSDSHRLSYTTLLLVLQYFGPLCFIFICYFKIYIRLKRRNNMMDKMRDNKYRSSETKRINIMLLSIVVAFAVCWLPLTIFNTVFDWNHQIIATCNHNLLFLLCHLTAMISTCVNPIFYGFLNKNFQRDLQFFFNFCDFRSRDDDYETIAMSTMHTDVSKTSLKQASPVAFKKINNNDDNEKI
Test: radioligand saturation binding on whole MCF-7 (L) cells
Format: cell-based

CCC(=O)/N=C(/N)NCCC[C@@H](NC(=O)C(c1ccccc1)c1ccccc1)C(=O)NCc1ccc(O)cc1 [[^3H]-UR-MK114]
Kd: 5 nM

From publication PMC3517602 (PLoS ONE, 2012)
